# Legend:
# [1] = test system: rat; conditions: Subchronic oral toxicity in rodents, sprague dawley, Feed, dose end: 90 day
# [2] = test system: rat; conditions: Prenatal developmental toxicity study, sprague dawley, Oral, Gavage/Intubation, dose end: 19 GD
# [3] = test system: rat; conditions: Combined chronic toxicity/carcinogenicity; sprague dawley; Oral; Feed; dose end: 24 month; group: systemic; systemic / hematology / erythrocyte (rbc) count differential / erythrocyte (rbc) + systemic / hematology / hematocrit (hct) / hematocrit (…
# [4] = test system: rat; conditions: Multigenerational reproductive toxicity study, sprague dawley, Oral, Feed, dose end: 2 generation
# [5] = test system: dog; conditions: Chronic toxicity; beagle; Oral; Feed; dose end: 60 week; group: systemic; systemic / clinical chemistry / thyroid stimulating hormone (thyrotropin) (tsh) / thyroid stimulating hormone (=thyrotropin) (tsh) + …
# [6] = test system: mouse; conditions: Carcinogenicity; cd1; Oral; Feed; dose end: 18 month; group: systemic; systemic / pathology microscopic / bone marrow / hematopoietic cell proliferation + systemic / pathology microscopic / liver / hematopoietic…
# [7] = test system: rat; conditions: Prenatal developmental toxicity study, sprague dawley, Oral, Gavage/Intubation, dose end: 19 GD; remark: listed apart in the source
# [8] = test system: rat; conditions: Carcinogenicity, fischer, Inhalation, Whole-Body, dose end: 104 week, group: systemic
# [9] = test system: rat; conditions: Subchronic inhalation toxicity, fischer, Whole-Body, dose end: 13 week, group: systemic
# [10] = test system: rat; conditions: Developmental neurotoxicity study; sprague dawley; Oral; Gavage/Intubation; dose end: 68 PND; group: cannot be grouped; systemic / in life observation / mortality / mortality
# [11] = test system: rat; conditions: Neurotoxicity screening battery; fischer; Inhalation; Whole-Body; dose end: 1 day; group: cannot be grouped; systemic / in life observation / clinical signs / abnormal gait + systemic / in life observation / clinical signs / body temperature + …
# [12] = test system: rat; conditions: Prenatal developmental toxicity study, Sprague-Dawley, Oral, Gavage/Intubation, dose end: 15 GD
# [13] = test system: mouse; conditions: Subchronic inhalation toxicity, cd1, Whole-Body, dose end: 13 week, group: systemic
# [14] = test system: rabbit; conditions: Prenatal developmental toxicity study; new zealand white; Oral; Gavage/Intubation; dose end: 18 GD; group: maternal; systemic / in life observation / body weight / body weight + systemic / in life observation / body weight / body weight gain + systemic / in…
# [15] = test system: rat; conditions: Combined chronic toxicity/carcinogenicity, sprague dawley, Oral, Feed, dose end: 2 year, group: systemic
# [16] = test system: rat; conditions: Multigenerational reproductive toxicity study, sprague dawley, Oral, Feed, dose end: 2 generation; remark: listed apart in the source
# [17] = test system: rat; conditions: Subchronic oral toxicity in rodents, sprague dawley, Feed, dose end: 13 week, group: systemic, systemic / clinical chemistry / aspartate aminotransferase (ast/sgot) / aspartate aminotransferase (ast/sgot) + systemic / clinical …
# [18] = test system: rat; conditions: Combined chronic toxicity/carcinogenicity, sprague dawley, Oral, Feed, dose end: 2 year, group: systemic; remark: listed apart in the source
# [19] = test system: mouse; conditions: Combined chronic toxicity/carcinogenicity, cd1, Oral, Feed, dose end: 18 month, group: systemic
# [20] = group: cholinesterase, cholinesterase / cholinesterase / cholinesterase / plasma cholinesterase (che)
# [21] = group: systemic, systemic / hematology / erythrocyte (rbc) count differential / erythrocyte (rbc) + systemic / hematology / hemoglobin (hgb) / hemoglobin (…
# [22] = group: systemic, systemic / pathology microscopic / blood / focal cellular change
# [23] = group: developmental, developmental / developmental malformation / bone / short
# [24] = group: maternal, systemic / in life observation / body weight / body weight gain + systemic / in life observation / body weight / body weight + systemic / in…
# [25] = group: offspring, systemic / in life observation / body weight / offspring (pup) weight + systemic / organ weight / liver / absolute + systemic / organ weight…
# [26] = group: parental, systemic / organ weight / spleen / absolute + systemic / organ weight / spleen / relative to body weight + systemic / pathology microscopic…
# [27] = group: developmental, developmental / developmental malformation / bone / bent + developmental / developmental malformation / bone / delayed ossification + …
# [28] = group: maternal, systemic / in life observation / clinical signs / [other] + systemic / pathology gross / spleen / discolored + systemic / pathology gross / …
# [29] = systemic / in life observation / body weight / body weight + systemic / in life observation / body weight / body weight gain + systemic / in…
# [30] = systemic / pathology microscopic / testes / adenoma
# [31] = systemic / in life observation / clinical signs / reduced activity
# [32] = systemic / in life observation / clinical signs / reduced activity + systemic / hematology / erythrocyte (rbc) count differential / …
# [33] = group: developmental, systemic / in life observation / body weight / fetal weight
# [34] = group: maternal, systemic / in life observation / body weight / body weight gain + systemic / in life observation / mortality / mortality + systemic / organ …
# [35] = systemic / organ weight / liver / relative to body weight
# [36] = systemic / organ weight / liver / relative to body weight + systemic / clinical chemistry / cholesterol / cholesterol
# [37] = group: offspring, systemic / in life observation / body weight / offspring (pup) weight
# [38] = group: parental, systemic / in life observation / body weight / body weight gain + systemic / in life observation / food consumption / food consumption + …
# [39] = group: reproductive, reproductive / offspring survival early / litter size / litter size
# [40] = systemic / organ weight / liver / relative to body weight + systemic / organ weight / thyroid gland / absolute + systemic / pathology gross…
# [41] = systemic / in life observation / clinical signs / amyloidosis + systemic / organ weight / brain / relative to brain weight + systemic / …
# [42] = systemic / organ weight / liver / relative to brain weight + systemic / organ weight / gallbladder / relative to brain weight
compound,measurement,setting,value
CC(C)OC(=O)Nc1cccc(Cl)c1 [Chlorpropham],LEL,[1]; [20],1140 mg/kg/day
same,LOAEL,[1]; [20],> 1140 mg/kg/day
same,NEL,[1]; [20],279 mg/kg/day
same,NOAEL,[1]; [20],≥ 1140 mg/kg/day
same,LOAEL,[1]; [21],276 mg/kg/day
same,NOAEL,[1]; [21],64.8 mg/kg/day
same,LEL,[1]; [22],15.9 mg/kg/day
same,NEL,[1]; [22],< 15.9 mg/kg/day
same,LEL,[2]; [23],1000 mg/kg/day
same,LOAEL,[2]; [23],1000 mg/kg/day
same,NEL,[2]; [23],350 mg/kg/day
same,NOAEL,[2]; [23],350 mg/kg/day
same,LOAEL,"[2]; group: maternal, systemic / in life observation / body weight / body weight gain",350 mg/kg/day
same,NEL,[2]; [24],100 mg/kg/day
same,NOAEL,[2]; [24],100 mg/kg/day
same,LEL,"[2]; group: maternal, systemic / in life observation / body weight / body weight gain + systemic / in life observation / clinical signs / red or crusty deposits …",350 mg/kg/day
same,LEL,[3],100 mg/kg/day
same,LOAEL,[3],100 mg/kg/day
same,NEL,[3],30 mg/kg/day
same,NOAEL,[3],30 mg/kg/day
same,LEL,[4]; [25],150 mg/kg/day
same,LOAEL,[4]; [25],150 mg/kg/day
same,NEL,[4]; [25],50 mg/kg/day
same,NOAEL,[4]; [25],50 mg/kg/day
same,LEL,[4]; [26],150 mg/kg/day
same,LOAEL,[4]; [26],150 mg/kg/day
same,NEL,[4]; [26],50 mg/kg/day
same,NOAEL,[4]; [26],50 mg/kg/day
same,LEL,[5],5 mg/kg/day
same,LOAEL,[5],50 mg/kg/day
same,NEL,[5],< 5 mg/kg/day
same,NOAEL,[5],5 mg/kg/day
same,LEL,[6],519 mg/kg/day
same,LOAEL,[6],519 mg/kg/day
same,NEL,[6],108 mg/kg/day
same,NOAEL,[6],108 mg/kg/day
same,LEL,[7]; [27],2000 mg/kg/day
same,LOAEL,[7]; [27],2000 mg/kg/day
same,NEL,[7]; [27],400 mg/kg/day
same,NOAEL,[7]; [27],400 mg/kg/day
same,LEL,[7]; [28],400 mg/kg/day
same,LOAEL,[7]; [28],400 mg/kg/day
same,NEL,[7]; [28],40 mg/kg/day
same,NOAEL,[7]; [28],40 mg/kg/day
CC(C)O [Isopropanol],LOAEL,[8]; [29],2500 ppm
same,NOAEL,[8]; [29],500 ppm
same,LEL,[8]; [30],500 ppm
same,NEL,[8]; [30],< 500 ppm
same,LEL,[9]; [31],500 ppm
same,NEL,[9]; [31],< 500 ppm
same,LOAEL,[9]; [32],> 5000 ppm
same,NOAEL,[9]; [32],≥ 5000 ppm
same,LEL,[10],1200 mg/kg/day
same,LOAEL,[10],1200 mg/kg/day
same,NEL,[10],700 mg/kg/day
same,NOAEL,[10],700 mg/kg/day
same,LEL,[11],5000 ppm
same,LOAEL,[11],> 10000 ppm
same,NEL,[11],1500 ppm
same,NOAEL,[11],≥ 10000 ppm
same,LEL,[12]; [33],800 mg/kg/day
same,LOAEL,[12]; [33],> 1200 mg/kg/day
same,NEL,[12]; [33],400 mg/kg/day
same,NOAEL,[12]; [33],≥ 1200 mg/kg/day
same,LOAEL,[12]; [34],> 1200 mg/kg/day
same,NEL,[12]; [34],400 mg/kg/day
same,NOAEL,[12]; [34],≥ 1200 mg/kg/day
same,LEL,"[12]; group: maternal, systemic / in life observation / mortality / mortality",800 mg/kg/day
same,LOAEL,[13]; [29],> 5000 ppm
same,NEL,[13]; [29],500 ppm
same,NOAEL,[13]; [29],≥ 5000 ppm
same,LEL,[13]; systemic / in life observation / clinical signs / ataxia + systemic / in life observation / clinical signs / lethargy + systemic / in life …,1500 ppm
same,LEL,[14],480 mg/kg/day
same,LOAEL,[14],> 480 mg/kg/day
same,NEL,[14],240 mg/kg/day
same,NOAEL,[14],≥ 480 mg/kg/day
CCC(CC)Nc1c([N+](=O)[O-])cc(C)c(C)c1[N+](=O)[O-] [Pendimethalin],LOAEL,[15]; [35],51 mg/kg/day
same,NOAEL,[15]; [35],< 51 mg/kg/day
same,LEL,[15]; [36],51 mg/kg/day
same,NEL,[15]; [36],< 51 mg/kg/day
same,LEL,[16]; [37],215 mg/kg/day
same,LOAEL,[16]; [37],215 mg/kg/day
same,NEL,[16]; [37],42 mg/kg/day
same,NOAEL,[16]; [37],42 mg/kg/day
same,LEL,[16]; [38],173 mg/kg/day
same,LOAEL,[16]; [38],173 mg/kg/day
same,NEL,[16]; [38],36 mg/kg/day
same,NOAEL,[16]; [38],36 mg/kg/day
same,LEL,[16]; [39],215 mg/kg/day
same,LOAEL,[16]; [39],215 mg/kg/day
same,NEL,[16]; [39],42 mg/kg/day
same,NOAEL,[16]; [39],42 mg/kg/day
same,LEL,[17],7.6 mg/kg/day
same,LOAEL,[17],382 mg/kg/day
same,NEL,[17],< 7.6 mg/kg/day
same,NOAEL,[17],39.2 mg/kg/day
same,LEL,[18]; systemic / in life observation / body weight / body weight gain + systemic / pathology gross / liver / accentuated lobular pattern,25 mg/kg/day
same,LOAEL,[18]; [40],> 250 mg/kg/day
same,NOAEL,[18]; [40],≥ 250 mg/kg/day
same,NEL,[18]; systemic / pathology microscopic / thyroid gland / adenoma + systemic / clinical chemistry / albumin / albumin + systemic / clinical …,5 mg/kg/day
same,LOAEL,[19]; [41],622 mg/kg/day
same,NOAEL,[19]; [41],62.3 mg/kg/day
same,LEL,[19]; [42],12.3 mg/kg/day
same,NEL,[19]; [42],< 12.3 mg/kg/day

# Source: EPA's ToxRefDB 2
